Measured values as given in US20250099475A1, “METHODS OF TREATING HYPERTENSION BY PERIODIC SUPPRESSION OF ALDOSTERONE SYNTHASE” (Mineralys Therapeutics, Inc., priority 2022, published 2025).

Assays:
[1] = tested on: subjects with hypertension; experiment: Double-blinded, randomized, placebo-controlled trial in subjects with hypertension (Example 2; AOBP week 4, serum K+); format: in vivo, human
Experimental: A double-blinded, randomized, placebo-controlled trial on the safety and efficacy of Compound A HBr was conducted on subjects with hypertension.
Hypertensive subjects were randomly assigned to one of the following six experimental groups: • (a) Placebo group: Oral administration of a placebo tablet matched for size, color, and shape of study drug once in the morning each day; • (b) 12.5 mg BID: Oral administration of one tablet containing 12.5 mg of Compound A HBr once in the morning and evening, 12 hours apart each day; • (c) 25 mg BID: Oral administration of one tablet containing 25 mg of Compound A HBr once in the morning and evening, 12 hours apart each day; • (d) 12.5 mg QD: Oral administration of one tablet containing 12.5 mg of Compound A HBr once in the morning each day; • (e) 50 mg QD: Oral administration of two tablets containing 25 mg of Compound A HBr once in the morning each day; and • (f) 100 mg QD: Oral administration of one tablet containing 100 mg of Compound A HBr once in the morning each day.
Subjects in the study met the following inclusion criteria: • (a) Male and nonpregnant, nonlactating female subjects ≥18 years of age; • (b) Written informed consent Health Insurance Portability and Accountability Act authorization, and local patient privacy required documentation for this study have been obtained; • (c) Automated office blood pressure (AOBP) with SBP ≥130 mm Hg; • (d) Background antihypertensive treatment of ≥2 drugs; • (e) PRA ≤1.0 ng/mL; • (f) Serum aldosterone ≥1 ng/dL; and • (g) Morning serum cortisol in normal range. If baseline serum cortisol <18 mcg/dL, then baseline Cortrosyn stimulation test administered at baseline.
Prospective subjects were also excluded based on the following exclusion criteria: • (a) Concomitant use of epithelial sodium channel inhibitors or mineralocorticoid receptor antagonists; • (b) Subjects with hypokalemia; • (c) Subjects with hyperkalemia; • (d) Subjects with serum cortisol <3 mcg/dL; • (e) Subjects with serum sodium <135 mEq/L; • (f) Subjects with estimated glomerular filtration rate <60 mL/min/1.73 m2; • (g) Subjects with type 1 or uncontrolled (hemoglobin A1c ≥9%) type 2 diabetes mellitus; • (h) Subjects with body mass index >40 kg/m2; • (i) Subjects with unstable angina; • (j) Subjects with SBP ≥175 mm Hg or DBP ≥100 mm Hg; • (k) Subjects with a decrease in SBP ≥20 mm Hg or DBP ≥10 mm Hg from sitting to standing position; • (l) Subjects who, in the opinion of the investigator, have suspected nonadherence to antihypertensive treatment; • (m) Subjects who, in the opinion of the investigator, have any major medical illness or symptoms; • (n) Subjects who, in the opinion of the investigator, have any acute or chronic medical or psychiatric condition; • (o) Subjects undergoing treatment with any of the following medications: • (i) Topical corticoids; • (ii) Sympathomimetic decongestants; • (iii) Theophylline; • (iv) Phosphodiesterase type 5 inhibitors; • (v) NSAIDs; • (vi) Intramuscular steroids; • (vii) Estrogen; • (viii) Cytochromes; • (ix) Strong CYP3A and CYP3A4 inducers; • (p) Subjects with known hypersensitivity to Compound A HBr or any of the excipients; and • (q) Subjects who are night-shift workers.

[2] = target: T1, CYP 11β2 beta hydroxylase (Homo sapiens, UniProt P19099); experiment: PKPD modeling of SAD study data: time above IC50; format: in vivo; conditions: aldosterone
T1 construct: estimated based on PKPD modeling of data from the SAD study; from tissue; host or cells: adrenal cortex of human study subjects (in vivo)
T1 sequence (P19099 25-503): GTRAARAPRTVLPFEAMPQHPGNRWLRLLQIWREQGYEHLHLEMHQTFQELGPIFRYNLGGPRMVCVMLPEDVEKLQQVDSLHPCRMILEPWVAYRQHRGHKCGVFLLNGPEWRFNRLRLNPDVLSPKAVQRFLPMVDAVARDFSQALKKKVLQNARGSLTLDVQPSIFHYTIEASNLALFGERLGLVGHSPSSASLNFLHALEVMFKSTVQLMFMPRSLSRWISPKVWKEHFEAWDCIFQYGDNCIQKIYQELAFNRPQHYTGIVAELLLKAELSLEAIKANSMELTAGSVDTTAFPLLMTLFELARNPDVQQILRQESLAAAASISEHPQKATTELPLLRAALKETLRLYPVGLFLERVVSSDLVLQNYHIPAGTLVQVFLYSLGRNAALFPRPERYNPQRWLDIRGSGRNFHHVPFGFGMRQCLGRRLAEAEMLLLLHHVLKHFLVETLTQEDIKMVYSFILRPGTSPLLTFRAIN
Experimental: A randomized, double-blinded, placebo-controlled study was conducted in which 116 patients were randomized and 87 received Compound A HBr.
A single ascending dose (SAD) study was conducted with the following dosing amounts tested: • (a) 5 mg • (b) 10 mg • (c) 20 mg • (d) 50 mg • (e) 100 mg • (f) 200 mg • (g) 400 mg • (h) 800 mg.
The IC50 of inhibition of CYP […] by Compound A HBr and the time above IC50 for each dosing amount were estimated based on PKPD modeling of data from the SAD study.

[3] = tested on: human adrenocortical NCI-H295R cell culture; experiment: Inhibitory effects on adrenal steroidogenesis; format: cell-based; conditions: 3 days of incubation
Experimental: Multiple concentrations of Compound A and aminoglutethimide (positive control) were evaluated in a human adrenocortical NCI-H295R cell culture. The effect of Compound A on adrenal steroidogenesis was determined by measurement of 12 steroid hormones in the culture medium after 3 days of incubation. The following steroids were measured: pregnenolone, 11-deoxycortisol, 17α-hydroxypregnenolone, 11-DOC, dehydroepiandrosterone, corticosterone, progesterone, cortisol, 17α-hydroxyprogesterone, aldosterone, androstenedione, and testosterone.

CC(=O)N[C@H]1CC[C@H](NC(=O)CN2CCN(c3nncc(-c4ccc(C)cc4)n3)CC2)CC1 [Compound A HBr]
Reduction in systolic blood pressure from baseline at week 4, dose cohort vs placebo, Mean (SEM) ([1]; 12.5 mg BID): 1.2 (5.2)
Systolic BP by AOBP, Change (Wk 4 v. BL), Mean ([1]; 12.5 mg BID, N 10): −5.3 mmHg
Systolic BP by AOBP, Change (Wk 4 v. BL), Median ([1]; 12.5 mg BID, N 10): −4.5 mmHg
Systolic BP by AOBP, Week 4, Mean ([1]; 12.5 mg BID, N 10): 138 mmHg
Systolic BP by AOBP, Week 4, Median ([1]; 12.5 mg BID, N 10): 133 mmHg
Reduction in systolic blood pressure from baseline at week 4, dose cohort vs placebo, Mean (SEM) ([1]; 12.5 mg QD): 3.85 (6.1)
Systolic BP by AOBP, Change (Wk 4 v. BL), Mean ([1]; 12.5 mg QD, N 10): −7.9 mmHg
Systolic BP by AOBP, Change (Wk 4 v. BL), Median ([1]; 12.5 mg QD, N 10): −2.25 mmHg
Systolic BP by AOBP, Week 4, Mean ([1]; 12.5 mg QD, N 10): 138.9 mmHg
Systolic BP by AOBP, Week 4, Median ([1]; 12.5 mg QD, N 10): 139 mmHg
Reduction in systolic blood pressure from baseline at week 4, dose cohort vs placebo, Mean (SEM) ([1]; 25 mg BID): 11.5 (5.1)
Systolic BP by AOBP, Change (Wk 4 v. BL), Mean ([1]; 25 mg BID, N 11): −15.5 mmHg
Systolic BP by AOBP, Change (Wk 4 v. BL), Median ([1]; 25 mg BID, N 11): −20.0 mmHg
Systolic BP by AOBP, Week 4, Mean ([1]; 25 mg BID, N 11): 132.1 mmHg
Systolic BP by AOBP, Week 4, Median ([1]; 25 mg BID, N 11): 132 mmHg
Reduction in systolic blood pressure from baseline at week 4, dose cohort vs placebo, Mean (SEM) ([1]; 50 mg QD): 6.3 (4.9)
Systolic BP by AOBP, Change (Wk 4 v. BL), Mean ([1]; 50 mg QD, N 12): −10.3 mmHg
Systolic BP by AOBP, Change (Wk 4 v. BL), Median ([1]; 50 mg QD, N 12): −8.75 mmHg
Systolic BP by AOBP, Week 4, Mean ([1]; 50 mg QD, N 12): 132.1 mmHg
Systolic BP by AOBP, Week 4, Median ([1]; 50 mg QD, N 12): 133 mmHg
Reduction in systolic blood pressure from baseline at week 4, dose cohort vs placebo, Mean (SEM) ([1]; 100 mg QD): 15 (5.4)
median increase in serum potassium (K+) ([1]; 100 mg QD cohort): 0.2 mmol/L
subjects with dose held or dose reduction related to elevated K+ ([1]; 100 mg QD cohort): No subjects
Systolic BP by AOBP, Change (Wk 4 v. BL), Mean ([1]; 100 mg QD, N 10): −19.0 mmHg
Systolic BP by AOBP, Change (Wk 4 v. BL), Median ([1]; 100 mg QD, N 10): −20.25 mmHg
Systolic BP by AOBP, Week 4, Mean ([1]; 100 mg QD, N 10): 126.1 mmHg
Systolic BP by AOBP, Week 4, Median ([1]; 100 mg QD, N 10): 124 mmHg
% 24 hr above IC50 ([2]; 12.5 mg BID): 25%
% 24 hr above IC50 ([2]; 12.5 mg QD): 8%
% 24 hr above IC50 ([2]; 25 mg BID): 52%
% 24 hr above IC50 ([2]; 50 mg QD): 38%
% 24 hr above IC50 ([2]; 100 mg QD): 56%

CC(=O)N[C@H]1CC[C@H](NC(=O)CN2CCN(c3nncc(-c4ccc(C)cc4)n3)CC2)CC1 [Compound A]
reduction in aldosterone secretion ([3]; concentrations ≥0.11 μmol/L): > 50%
reduction in corticosterone ([3]; concentrations ≥1 μmol/L): > 50%
reductions in pregnenolone, progesterone, 17α-hydroxyprogesterone, 11-DOC, corticosterone, and cortisol ([3]; top concentration 3 μmol/L): < 50%
